Where “and” joins values, the source holds several entries; their conditions need not be identical. Identical values can stand only once. Marks after values point to notes of the source that are not given here.
Tests used:
[1] = Complications of pregnancy: toxemia (Protocol B); parameters: species or system human; conditions: in vivo
Procedure: L-Glu-L-Trp was administered im at 100 μg daily, or 1 μg/kg intranasally, for 5-10 days.

[2] = tested on: resident peritoneal macrophages; assay: Innate immunity in CBA mice: thymic and spleen mass, splenic lymphocytes, resident peritoneal macrophages; type: in vivo; conditions: for Spleen / Thymus: CBA mice; for NBT Reduction, Induced: macrophages induced with complement opsonized zymosan; for NBT Reduction, Spontaneous / Neutral Red Uptake Absorbance: resident peritoneal macrophages
Adult thymectomy = assay: Adult thymectomy; parameters: species or system human; conditions: in vivo
Procedure: A total of 12 thymectomized patients were treated with L-Glu-L-Trp. Prior to therapy, these individuals had experienced frequent serious infections including upper respiratory infections. L-Glu-L-Trp was administered in a single dose of 100 μg daily for 10 days and repeated every 4-6 months.

[3] = tested on: human peripheral blood T-lymphocytes; assay: OKT4+ and OKT8+ lymphocytes from patients with secondary immunodeficiency after in vitro incubation; type: cell-based; conditions: for OKT4^+/OKT8^+ ratio / mean percentage of T-helper (OKT4^+) lymphocytes / mean percentage of T-suppressor (OKT8^+) lymphocytes: 45 minutes at 37° C.
Text: The effects of L-Glu-L-Trp on human peripheral blood T-lymphocytes was investigated using indirect immunofluorescence microscopy and OKT4 and OKT8 monoclonal antibodies (Ortho, USA) directed to lymphocyte cell surface differentiation antigens. For these studies lymphocytes were isolated from heparinized peripheral blood (25 units heparin/mL) isolated from 18 different donors with inflammatory lung diseases and chronic purulent bronchitis accompanied by a secondary immunodeficiency state. Lymphocytes were prepared by centrifugation on Ficoll-Hypaque, washed, and then incubated in vitro for 45 minutes at 37° C. in the presence (or absence) of L-Glu-L-Trp at concentrations of 1 mg/mL, 0.01 mg/mL, 0.0001 mg/mL. Following incubation the cells were washed with Medium 199 and the percentage of OKT4^+ (T-helper) and OKT8^+ (T-suppressor) lymphocytes determined by indirect immunofluorescent microscopy. The results presented in TABLE 51 show the mean percentages of OKT4^+ and OKT8^+ cells in this group of patients after incubation with Medium 199 (Control), or with L-Glu-L-Trp.

Frostbite = assay: Frostbite; parameters: species or system human; conditions: in vivo
Procedure: Seventeen patients with frostbite of the extremities were treated with L-Glu-L-Trp either im or intranasally. Eleven patients constituted a control group.

[4] = Post-term women (Protocol D); parameters: species or system human; conditions: in vivo
Procedure: Nineteen patients (19 women) post-term were treated with L-Glu-L-Trp and 48 women received conventional post-term treatment as a control group.

[5] = tested on: peripheral blood lymphocytes; assay: Breast cancer patients after radiotherapy treated with L-Glu-L-Trp 100 μg im daily; type: in vivo, human
Procedure: (§1) Thirty six patients with breast cancer were treated with conventional radiation therapy (i.e., single doses of about 2-3 Gy daily for 10 days; total cumulative patient dose of 20-30 Gy). Following radiotherapy the patients were treated with L-Glu-L-Trp by injection of daily dosages im of 100 μg. The patients had been previously treated with radiation therapy (single doses 2 Gy; total dose 20-30 Gy).

E-RFC = assay: Increase in no. E-RFC in vitro after incubation with L-Glu-L-Trp (breast cancer patients); type: cell-based, human
Procedure: as §1
Ram erythrocytes (E) were washed 4× in saline (2000 rpm/10 min.) and suspended at a final concentration of 1% in Medium 199. For determinations of the percentage of E-rosette forming T-lymphocytes (E-RFC) in a sample, 0.1 mL of a prepared lymphocyte suspension (2.5×10^6/ml) was incubated with 0.1 mL of the 1% ram erythrocyte suspension at 37° C. for 10 min., centrifuged at 800-1000 rpm for 5 min., maintained at 4° C. for 2 hrs., and finally resuspended and counted in a Goryaev chamber. Activated T-lymphocytes (i.e., having increased E-RFC capacity) were determined by mixing the test lymphocyte suspension with E, immediately centrifuging for 5 min. at 800-1000 rpm, resuspending the cells and counting the rosettes formed in a Goryaev chamber.

[6] = DTH sensitization to Oxazolone (ear thickness); type: in vivo, mice; conditions: for Mean Ear Thickness ± S.D.: challenge day 7, measured at 24 hours
Procedure: Effects of L-Glu-L-Trp treatments on cell mediated immunity were evaluated by testing its effects on induction of a delayed-type hypersensitivity response in two different studies involving sensitization of mice to Oxazolone and guinea pigs to tuberculin.
In the first study L-Glu-L-Trp was administered ip at a dose of 10 μg/kg, or 1000 μg/kg one hour before a sensitizing dose of Oxazolone (0.1 mL of a 5% solution) was applied to the abdominal surface of a mouse. Seven days later skin sensitivity was measured by administering 25 μL of a 2% oxazolone solution to the right mouse ear and a sample of the diluent solution, as a control, to the left ear. Ear thickness was measured at 24 hours using a Dyer Model micrometer.

For L-Glu-L-Trp, the Clinical outcome [1] was “normalized blood pressure”, the “B cells Change (% peptide treated/% control)” value ([2]; 0.01 mg/kg ip daily 6 days) was 1.0 and the “Splenic lymphocytes: B cells (%)” value ([2]; 0.01 mg/kg ip daily 6 days) was 50.8 ± 3.0%. For the same substance, the “Splenic lymphocytes: T cells (%)” value ([2]; 0.01 mg/kg ip daily 6 days) was 41.2 ± 2.1 %, the “T cells Change (% peptide treated/% control)” value ([2]; 0.01 mg/kg ip daily 6 days) was “↑ 1.1” and the “Increase in neutral red uptake by macrophages” value ([2]; 0.01 mg/kg, not statistically different from control) was 75%. For the same substance, the Thymic weight ([2]; 1 mg/kg and 0.01 mg/kg ip, 6 days) was “statistically significant decrease in thymic weight at both dosages”, the “B cells Change (% peptide treated/% control)” value ([2]; 1.0 mg/kg ip daily 6 days) was 1.0 and the “Splenic lymphocytes: B cells (%)” value ([2]; 1.0 mg/kg ip daily 6 days) was 52.4 ± 1.71%. For the same substance, the “Splenic lymphocytes: T cells (%)” value ([2]; 1.0 mg/kg ip daily 6 days) was 34.8 ± 2.5%, the “T cells Change (% peptide treated/% control)” value ([2]; 1.0 mg/kg ip daily 6 days) was “↓ 0.9” and the “Spleen” value ([2]; 0.01 mg/kg ip daily 6 days) was 69.8 ± 2.6 mg. For the same substance, the “Thymus” value ([2]; 0.01 mg/kg ip daily 6 days) was 14.8 ± 1.6 mg, the “Spleen” value ([2]; 1.0 mg/kg ip daily 6 days) was 88.4 ± 4.4 mg and the “Thymus” value ([2]; 1.0 mg/kg ip daily 6 days) was 14.1 ± 1.3 mg. The “Increase in NBT reducing activity on induction with complement-opsonized zymosan” value ([2]; macrophages from treated animals) was 1.75 fold and 2 fold, the “NBT Reduction, Induced” value ([2]; 0.01 mg/kg) was 0.205 ± 0.012 OD540 and the “NBT Reduction, Induced” value ([2]; 1 mg/kg) was 0.116 ± 0.008 OD540. The “NBT Reduction, Spontaneous” value ([2]; 0.01 mg/kg) was 0.101 ± 0.002 OD540, the “Neutral Red Uptake Absorbance” value ([2]; 0.01 mg/kg) was 0.604 ± 0.031 and the “NBT Reduction, Spontaneous” value ([2]; 1 mg/kg) was 0.059 ± 0.003 OD540. For the same substance, the “Neutral Red Uptake Absorbance” value ([2]; 1 mg/kg) was 0.469 ± 0.016, the Clinical outcome (Adult thymectomy) was “reduction of infectious disorders” and the “Percentage of detectable OKT8+ T-suppressor cells” value [3] was “did not alter the percentage of detectable OKT 8^+ T-suppressor cells”. For the same substance, the “Percentage of detectable T-helpers (OKT4+)” value ([3]; 1 and 0.01 mg/mL) was “increased the percentage of detectable T-helpers”, the “OKT4^+/OKT8^+ ratio” value ([3]; Dose 0.0001 mg/ml) was 1.1 and the “mean percentage of T-helper (OKT4^+) lymphocytes” value (from here on “mean percentage of T-helper”) ([3]; Dose 0.0001 mg/ml) was 25.4 ± 2.3. For the same substance, the “mean percentage of T-suppressor (OKT8^+) lymphocytes” value (from here on “mean percentage of T-suppressor”) ([3]; Dose 0.0001 mg/ml) was 23.1 ± 2.1, the “OKT4^+/OKT8^+ ratio” value ([3]; Dose 0.01 mg/ml) was 1.8* and the “mean percentage of T-helper” value ([3]; Dose 0.01 mg/ml) was 39.8 ± 2.4. For the same substance, the “mean percentage of T-suppressor” value ([3]; Dose 0.01 mg/ml) was 22.7 ± 1.8, the “OKT4^+/OKT8^+ ratio” value ([3]; Dose 1 mg/ml) was 1.9* and the “mean percentage of T-helper” value ([3]; Dose 1 mg/ml) was 39.7 ± 2.7. For the same substance, the “mean percentage of T-suppressor” value ([3]; Dose 1 mg/ml) was 21.4 ± 1.3, the Clinical outcome (Frostbite) was “Rapid healing and restoration of tissue integrity” and the Clinical outcome [4] was “resulting in a normal delivery”. For the same substance, the “B-lymphocyte (Ig+)” value [5] was 0.17 ± 0.02 ×10^9/L, the “B-lymphocyte (Ig+), Ratio Post-Rad/Pre-Rad Value” [5] was “(1.1)” and the “B-lymphocyte (Ig+), Ratio Post-Treat/Pre-Treat Value” [5] was “(1.55)”. For the same substance, the C3-complement [5] was 0.68 ± 0.04 g/L, the DTH to tuberculin [5] was 8.7 ± 0.6 mm and the “DTH to tuberculin, Ratio Post-Rad/Pre-Rad Value” [5] was “(1.2)”. For the same substance, the “Granulocyte Cation Proteins” value [5] was 1.49 ± 0.12, the “Granulocyte Phagocytic Index” value [5] was 3.7 ± 0.2 and the “LMI with ConA” value [5] was 71 ± 5 %. For the same substance, the Lymphocytes [5] was 1.72 ± 0.21 ×10^9/L, the “Lymphocytes, Ratio Post-Rad/Pre-Rad Value” [5] was “(1.1)” and the “Lymphocytes, Ratio Post-Treat/Pre-Treat Value” [5] was “(2.18)”. For the same substance, the “OKT4+/OKT8+” value [5] was 1.86 ± 0.17, the T-Lymphocytes [5] was 0.92 ± 0.12 ×10^9/L and the “T-helpers (OKT4+)” value [5] was 0.39 ± 0.04 ×10^9/L. The “T-helpers (OKT4+), Ratio Post-Rad/Pre-Rad Value” [5] was “(1.3)”, the “T-helpers (OKT4+), Ratio Post-Treat/Pre-Treat Value” [5] was “(3.25)” and the “T-lymphocytes, Ratio Post-Rad/Pre-Rad Value” [5] was “(1.1)”. For the same substance, the “T-lymphocytes, Ratio Post-Treat/Pre-Treat Value” [5] was “(2.88)”, the “T-suppressors (OKT8+)” value [5] was 0.21 ± 0.03 ×10^9/L and the “T-suppressors (OKT8+), Ratio Post-Rad/Pre-Rad Value” [5] was “(0.8)”. The “T-suppressors (OKT8+), Ratio Post-Treat/Pre-Treat Value” [5] was “(1.31)”, the ““Active” T-lymphocytes” value [5] was 0.52 ± 0.07 ×10^9/L and the ““Active” T-lymphocytes, Ratio Post-Rad/Pre-Rad Value” [5] was “(1.1)”. The ““Active” T-lymphocytes, Ratio Post-Treat/Pre-Treat Value” [5] was “(2.74)”, the “Increase in no. E-RFC in vitro after incubation with L-Glu-L-Trp” value (from here on “Increase in no. E-RFC in vitro”) (E-RFC; cells taken After L-Glu-L-Trp therapy) was 1.27 ± 0.14 and the “Increase in no. E-RFC in vitro” value (E-RFC; cells taken After Radiotherapy) was 1.19 ± 0.13. For the same substance, the “Increase in no. E-RFC in vitro” value (E-RFC; cells taken Before Radiotherapy) was 1.23 ± 0.15, the “Mean Ear Thickness ± S.D.” value ([6]; 10 μg/kg ip one hour before Oxazolone sensitization) was 17 ± 1 μm and the DTH sensitivity ([6]; 1000 μg dose one hour prior to antigen) was “increase in DTH sensitivity to oxazolone”. For the same substance, the “Mean Ear Thickness ± S.D.” value ([6]; 1000 μg/kg ip one hour before Oxazolone sensitization) was 24 ± 1 μm.

From US6368788B1 (priority 1987, dated 2002)
